Results taken from patent US4584301A, “Diphenylmethylene piperidines, compositions and methods of use” (Warner-Lambert Company, priority 1985, dated 1986).
pIC50, pKi: −log10 of the molar value. Structures can show the parent of a compound that is named as a salt. Where two headings read alike, the source gives them in different places.

Tests used:
[1] = target: Dopamine D2 receptor (Rattus norvegicus, UniProt P61169); assay: Affinity for dopamine D2 receptors in rat brain membranes; assay type: binding
Dopamine D2 receptor, sequence (P61169 whole entry): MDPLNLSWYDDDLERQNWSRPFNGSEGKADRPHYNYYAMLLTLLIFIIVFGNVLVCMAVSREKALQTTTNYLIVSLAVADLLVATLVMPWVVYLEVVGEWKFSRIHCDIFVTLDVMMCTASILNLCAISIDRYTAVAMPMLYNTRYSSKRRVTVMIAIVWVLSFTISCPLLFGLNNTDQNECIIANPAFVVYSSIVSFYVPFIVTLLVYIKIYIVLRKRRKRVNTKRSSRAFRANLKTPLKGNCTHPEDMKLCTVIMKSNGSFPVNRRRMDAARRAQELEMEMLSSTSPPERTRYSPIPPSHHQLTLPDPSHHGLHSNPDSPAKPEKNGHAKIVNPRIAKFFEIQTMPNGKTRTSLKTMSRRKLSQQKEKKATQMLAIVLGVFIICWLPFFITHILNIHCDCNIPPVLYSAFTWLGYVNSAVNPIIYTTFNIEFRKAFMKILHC

[2] = target: T1, Histamine H1 receptor (Rattus norvegicus, UniProt P31390); assay: Affinity for histamine H1 receptors in rat brain membranes; assay type: binding
T1 construct: Histamine H1 Receptors in Rat Brain Membranes; from tissue; host or cells: rat brain membranes
T1 sequence (P31390 whole entry): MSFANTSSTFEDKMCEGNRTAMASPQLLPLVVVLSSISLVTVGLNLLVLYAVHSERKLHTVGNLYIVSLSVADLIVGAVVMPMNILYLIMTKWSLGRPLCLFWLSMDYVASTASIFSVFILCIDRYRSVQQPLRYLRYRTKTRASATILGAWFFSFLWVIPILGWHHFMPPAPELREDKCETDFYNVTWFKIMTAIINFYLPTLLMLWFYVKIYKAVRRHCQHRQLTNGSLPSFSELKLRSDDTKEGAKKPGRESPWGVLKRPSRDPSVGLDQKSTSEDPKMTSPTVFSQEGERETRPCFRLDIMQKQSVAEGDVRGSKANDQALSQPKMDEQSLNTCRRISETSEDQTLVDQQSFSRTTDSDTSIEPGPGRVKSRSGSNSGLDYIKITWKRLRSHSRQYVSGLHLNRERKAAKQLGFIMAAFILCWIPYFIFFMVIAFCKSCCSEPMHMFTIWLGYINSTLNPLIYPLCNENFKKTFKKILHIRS
Text: (§1) for Dopamine D2, Muscarinic, and
(§2) Histamine H1 Receptors in Rat Brain Membranes
*Tran V. T., Lebovitz, R., Toll, L., and Snyder, S. H.: [^3 H]Doxepin
interactions with histamine H1 -receptors in guinea pig and rat brai

[3] = target: Muscarinic Cholinergic receptor; assay: Affinity for muscarinic cholinergic receptors in rat brain membranes; assay type: binding
Method: This test uses the displacement of [^3 H] quinuclidinyl benzilate ([^3 H]QNB) from specific muscarinic cholinergic receptors in the rat brain to measure in vitro anticholinergic activity of compounds. […]. A Long-Evans male rat weighing 180-200 grams is routinely used. The brain tissue homogenate along with appropriate concentrations of test compounds and [^3 H]QNB is incubated for one hour at 25° C. in a buffer medium of 50 mM Na-K PO4 pH 7.4. The material is filtered and washed on a millipore filter using Whatman GF/B filters. The filters are counted on a scintillation spectrophotometer. A maximal displacement by 0.1 mM oxotremorine is used to determine how much of the total binding is specific for muscarinic receptors.
Results: The results are reported as percent inhibition of total specific binding. Reference: Yamamura, Henry L. and Snyder, Solomon H. (1974). Muscarinic Cholinergic Binding in Rat Brain Proc. Nat. Acad. Sci. USA Vol 71 No. 5 pp. 1725-1729 May 1974.
as §1, §2

[4] = system: apomorphine-induced emesis in dogs; assay: Apomorphine emesis assay; assay type: in vivo, dog; details: Canis lupus familiaris, oral, apomorphine hydrochloride 0.1 mg/kg s.c.
Method: 3. APOMORPHINE EMESIS ASSAY
Method: Dogs, unsegregated with respect to breed or sex, are used. They are fasted for 16 hours prior to the administration of the test compound. The test compounds are given orally by stomach tube at intervals prior to a subcutaneous injection of 0.1 mg/kg of apomorphine hydrochloride. The dogs are observed for changes in behavior or signs of neuropharmacologic action during the period between drugs and the emetic. After the apomorphine injection the frequency of vomiting episodes is recorded.
The number of dogs vomiting per total number tested, the number of vomiting episodes for each dog, and the average number of episodes are reported for dogs treated with the test compound and dogs treated with vehicle.
The drug is rated as being active if no vomiting episodes are seen in 50 percent or more of the dogs tested.

[5] = target: muscarinic cholinergic receptors; assay type: binding; details: rat brain homogenate, [3H]QNB, 25° C., pH 7.4; for pIC50: read-out: MRBA IC50; for MRBA percent inhibition of total specific binding: concentration not given
[6] = target: brain dopamine receptors; assay: Haloperidol receptor binding assay (HRBA), inhibition of 3H-haloperidol binding; details: rat corpus striatum, 0.6 nM 3H-haloperidol; for pIC50: pH 7.7; for HRBA percent inhibition: 1 nM and 10 nM of test drug in primary screen, concentration per value not given
[7] = rat brain membranes, read-out: Receptor Ki, Histamine H1

Row | Compound | pKi [1] | pKi [2, 7] | pKi [3] | MRBA percent inhibition of total specific binding [5] | HRBA percent inhibition [6] | also measured
1 | c1ccc(C(=C2CCN(CCCN3CCCc4ccccc43)CC2)c2ccccc2)cc1 | 7.38 | 7.51 | 7.96 |  |  | 
2 | c1ccc(C(=C2CCN(CCN3CCOCC3)CC2)c2ccccc2)cc1 [Compound 1, Morpholine, 4-[2-[4-(diphenylmethylene)-1-piperidinyl]ethyl], dihydrochloride] | 7.51 | 7.70 | 7.49 |  |  | ED50 [4]: ~5 mg/kg; pIC50 [5]: 6.83; pIC50 [6]: 7.54
3 | c1ccc(C(=C2CCN(CCN3CCCC3)CC2)c2ccccc2)cc1 [Compound 2, Piperidine, 4-(diphenylmethylene)-1-[2-(1-pyrrolidinyl)ethyl]-,dihydrochloride] |  |  |  |  |  | pIC50 [5]: 8.08; pIC50 ([6]; unit inferred): 6.51
4 | c1ccc(C(=C2CCN(CCN3CCCCC3)CC2)c2ccccc2)cc1 [Compound 3, Piperidine, 4-(diphenylmethylene)-1-[2-(1-piperidinyl)ethyl]-, dihydrochloride, hydrate (4:1)] | 6.98 | 7.92 | 8.52 |  |  | pIC50 [5]: 7.74; pIC50 [6]: 6.87
5 | c1ccc(C(=C2CCN(CCCN3CCCCC3)CC2)c2ccccc2)cc1 [Compound 4, Piperidine, 4-(diphenylmethylene)-1-[3-(1-piperidinyl)propyl]-,dihydrochloride, hemihydrate] |  |  |  |  |  | pIC50 [5]: 7.82; pIC50 [6]: 7.30
6 | CN1CCCC1CCN1CCC(=C(c2ccccc2)c2ccccc2)CC1 (stereo not drawn) [Compound 5, Piperidine, 4-(diphenylmethylene)-1-[2-(1-methyl-2-pyrrolidinyl)ethyl]-, dihydrochloride, hemihydrate] |  |  |  |  |  | pIC50 [5]: 7.70; pIC50 ([6]; unit inferred): 7.14
7 | Cl.Cl.c1ccc(C(=C2CCN(CCCCN3CCCCC3)CC2)c2ccccc2)cc1 [Compound 6, Piperidine, 4-(diphenylmethylene)-1-[4-[1-piperidinyl]butyl]-, dihydrochloride] |  |  |  | 83% |  | 
8 | O=C(CCN1CCC(=C(c2ccccc2)c2ccccc2)CC1)N1CCCc2ccccc21 [Compound 7] |  |  |  | 52% |  | 
9 | O=C(CCN1CCC(=C(c2ccccc2)c2ccccc2)CC1)N1CC=C(Oc2ccc(F)cc2)CC1 [Compound 8, pyridine, 1-[3-[4-(diphenylmethylene-1-piperidinyl]-1-oxopropyl]-4-(fluorophenoxy)-1,2,3,6-tetrahydro-, 2-hydroxy-1,2,3-propane tricarboxylate(1:1), dihydrate] |  |  |  | 64% |  | 
10 | CC1(C)CC(=O)C=C(NCCN2CCC(=C(c3ccccc3)c3ccccc3)CC2)C1 [Compound 9, 2-Cyclohexen-1-one, 3-[[2-[4-(diphenylmethylene)-1-piperidinyl]ethyl]amino]-5,5-dimethyl] | 7.12 | 7.25 | 7.96 | 73% | 63% | 
11 | Cl.Cl.O.c1ccc(C(=C2CCN(CCCN3CCCc4ccccc43)CC2)c2ccccc2)cc1 [Compound 10, Quinoline, 1-[3-[4-(diphenylmethylene]-1-piperidinyl]propyl]-1,2,3,4-tetrahydro-, dihydrochloride, monohydrate] |  |  |  | 83% | 69% | 
12 | O=C(CCN1CCC(=C(c2ccccc2)c2ccccc2)CC1)N1CCC(O)(O)CC1 [Compound 11, 4,4-Piperidinediol, 1-[3-[4-(diphenylmethylene)-1-piperidinyl]-1-oxopropyl]] |  |  |  |  |  | pIC50 [5]: 7.42; pIC50 [6]: 6.44
13 | OC1CCN(CCCN2CCC(=C(c3ccccc3)c3ccccc3)CC2)CC1 [Compound 12, 4-Piperidinol, 1-[3-[4-(diphenylmethylene)-1-piperidinyl]propyl]-,dihydro-chloride, hemihydrate] | 7.60 | 8.21 | 7.82 | 63% | 89% | 
14 | OCCC1CCN(CCCN2CCC(=C(c3ccccc3)c3ccccc3)CC2)CC1 [Compound 13, 4-Piperidineethanol, 1-[3-[4-(diphenylmethylene)-1-piperidinyl]propyl]-,dihydrochloride, monohydrate] | 6.80 | 7.71 | 8.30 | 83% | 55% | 
15 | Fc1ccc(C(=C2CCN(CCCN3CCCCC3)CC2)c2ccc(F)cc2)cc1 [Compound 14, Piperidine, 1-[3-(1-piperidinyl)propyl]-4-[bis-(4-fluorophenyl)-methylene]-, dihydrochloride, hydrate (2:1)] | 7.17 | 7.80 | 7.64 | 57% | 73% | 
16 | Cl.Cl.Fc1ccc(C(=C2CCN(CCN3CCCCC3)CC2)c2ccc(F)cc2)cc1 [Compound 15, Piperidine, 4-[bis-(4-fluorophenyl)-methylene]-1-[2-(1-piperidinyl)ethyl]-, dihydrochloride] | 7.25 |  | 7.77 | 67% | 62% | pKi [2]: 7.07
17 | CN1CCCC1CCN1CCC(=C(c2ccc(F)cc2)c2ccc(F)cc2)CC1 (stereo not drawn) [Compound 16, Piperidine, 4-[bis-(4-fluorophenyl)-methylene]-1-[2-(1-methyl-2-pyrrolidinyl)ethyl]-, (E)-2-butanedioate (1:2)] |  |  |  | 36% | 48% | 
18 | Fc1cccc(C(=C2CCN(CCCN3CCCCC3)CC2)c2cccc(F)c2)c1 [Compound 17, dihydrochloride] |  |  |  | 32% |  | 
19 | Cl.Cl.Clc1cccc(C(=C2CCN(CCCN3CCCCC3)CC2)c2ccccc2)c1 [Compound 18, Piperidine, 4-[(3-chlorophenyl)phenylmethylene]-1-[3-(1-piperidinyl)propyl]-, dihydrochloride] |  |  |  | 37% | 52% | 
20 | Fc1cccc(C(=C2CCN(CCCN3CCCCC3)CC2)c2ccccc2)c1 [Compound 19, Piperidine, 4-[(3-fluorophenyl)phenylmethylene]-1-[3-(1-piperidinyl)propyl]-, dihydrochloride] |  |  |  | 45% | 36% | 
21 | O=C(CCCN1CCCCC1)N1CCC(=C(c2ccccc2)c2ccccc2)CC1 [Compound 20, Piperidine, 4-(diphenylmethylene)-1-[1-oxo-4-(1-piperidinyl)butyl]-] |  |  |  | 54% |  | 
22 | CSC(=NC#N)NCCCN1CCC(=C(c2ccccc2)c2ccccc2)CC1 [Compound 21, Carbamimidothioic acid, N'-cyano-N-[3-[4-(diphenylmethylene)-1-piperidinyl]-propyl]-, methyl ester] | 7.49 | 9.42 | 8.07 |  |  | pIC50 [5]: 7.19; pIC50 [6]: 7.41
23 | CNC(=NC#N)NCCCN1CCC(=C(c2ccccc2)c2ccccc2)CC1 [Compound 22, Guanidine, N'-cyano-N-[3-[4-(diphenylmethylene)-1-piperidinyl]propyl]-N'-methyl] |  |  |  | 42% | 73% | 
24 | N#CN=C(NCCCN1CCC(=C(c2ccccc2)c2ccccc2)CC1)N1CCCCC1 [Compound 23, 1-Piperidinecarboximidamine, N'-cyano-N-[3-[4-diphenylmethylene]-1-piperidinyl]propyl] | 7.55 | 8.77 | 8.70 | 86% | 55% | 
